Article PMC10269775, “Penicillin-Binding Protein Occupancy Dataset for 18 β-Lactams and 4 β-Lactamase Inhibitors in Neisseria gonorrhoeae” (Microbiology Spectrum, 2023)
Values after ≈ are worked out from the molar mass of the structure shown. Read-outs that look alike come from different tables or passages of the source.

Assays:
PBP1, PBP2 and PBP3 [1] = biological target: PBP1, PBP2 and PBP3 (Neisseria gonorrhoeae, UniProt P08149, A510V/A516G/A574V/F504L/H541N/I556V/I566V/K555Q/P552V); type: binding, Neisseria gonorrhoeae ATCC 49226; details: read-out: min. IC50 (minimum observed IC50 value); strain ATCC 49226
PBP1 [2] = biological target: T1, PBP1 (Neisseria gonorrhoeae, UniProt O05131, A375T/F666S); assay: PBP-binding assay (Bocillin FL) in isolated membrane preparations; design: species or system Neisseria gonorrhoeae ATCC 49226
T1 construct: endogenous in cells; host or cells: N. gonorrhoeae ATCC 49226, isolated membrane preparation
Excerpt: (§1) Bacterial membranes were collected by ultracentrifugation.

PBP3 [3] = biological target: T2, PBP3 (Neisseria gonorrhoeae, UniProt Q5FAB9); details: read-out: IC50 PBP3; strain ATCC 19424; membrane preparation, 30 min drug then Bocillin FL
T2 sequence (Q5FAB9 22-469): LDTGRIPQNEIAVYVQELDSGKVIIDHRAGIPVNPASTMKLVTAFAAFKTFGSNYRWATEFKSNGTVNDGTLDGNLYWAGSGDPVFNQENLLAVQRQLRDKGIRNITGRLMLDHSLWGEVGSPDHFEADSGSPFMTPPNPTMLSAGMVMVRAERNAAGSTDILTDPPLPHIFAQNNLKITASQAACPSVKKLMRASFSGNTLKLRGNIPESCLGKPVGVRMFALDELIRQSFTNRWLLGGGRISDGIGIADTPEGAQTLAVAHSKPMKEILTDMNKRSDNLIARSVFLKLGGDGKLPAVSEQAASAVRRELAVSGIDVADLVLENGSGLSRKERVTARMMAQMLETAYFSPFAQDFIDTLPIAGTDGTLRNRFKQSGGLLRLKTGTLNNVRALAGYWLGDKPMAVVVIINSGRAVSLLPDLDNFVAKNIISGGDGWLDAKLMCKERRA

[4] = test system: N. gonorrhoeae ATCC 19424; assay: MIC, CLSI broth microdilution; type: cell-based; details: Neisseria gonorrhoeae, ATCC19424, strain ATCC 19424
PBP2 [5] = biological target: T3, PBP2 (Neisseria gonorrhoeae, UniProt P08149, A510V/A516G/A574V/F504L/H541N/I556V/I566V/K555Q/P552V); assay: biochemical; type: binding, Neisseria gonorrhoeae ATCC 49226
T3 construct: endogenous in cells; host or cells: N. gonorrhoeae ATCC 49226, isolated membrane preparation

[6] = test system: N. gonorrhoeae ATCC 49226; assay: MIC, CLSI broth microdilution; type: cell-based, Neisseria gonorrhoeae; details: for MIC increase for strain ATCC 49226: ATCC 49226 versus ATCC 19424; for MIC: strain ATCC 49226
PBP3 [7] = biological target: T2, PBP3; details: read-out: IC50 PBP3; strain ATCC 49226; membrane preparation, 30 min drug then Bocillin FL
PBP1 [8] = biological target: T4, PBP1 (Neisseria gonorrhoeae, UniProt O05131); assay: PBP-binding assay (Bocillin FL) in isolated membrane preparations; details: strain ATCC 19424
T4 construct: endogenous in cells; host or cells: N. gonorrhoeae ATCC 19424, isolated membrane preparation
Excerpt: as §1

PBP1, PBP2 and PBP3 [9] = biological target: PBP1, PBP2 and PBP3 (Neisseria gonorrhoeae, UniProt P08149, H541N); type: binding, Neisseria gonorrhoeae ATCC 19424; details: read-out: min. IC50 (minimum observed IC50 value); strain ATCC 19424
PBP2 [10] = biological target: T5, PBP2 (Neisseria gonorrhoeae, UniProt P08149, H541N); assay: PBP-binding assay (Bocillin FL) in isolated membrane preparations; design: species or system Neisseria gonorrhoeae ATCC 19424; details: membrane preparation, 30 min drug then Bocillin FL
T5 construct: endogenous in cells; host or cells: N. gonorrhoeae ATCC 19424, isolated membrane preparation

PBP1, PBP2 and PBP3 [11] = biological target: T6, PBP1, PBP2 and PBP3 (Neisseria gonorrhoeae, UniProt Q5FAB9); type: binding, Neisseria gonorrhoeae ATCC 49226; details: read-out: min. IC50 (minimum observed IC50 value); strain ATCC 49226
T6 sequence (Q5FAB9 22-469): T2 sequence (Q5FAB9 22-469)

[12] = IC50 PBP1, strain ATCC 49226, membrane preparation, 30 min drug then Bocillin FL
[13] = IC50 PBP2, strain ATCC 49226, membrane preparation, 30 min drug then Bocillin FL
[14] = Neisseria gonorrhoeae, ATCC49226, read-out: MIC
[15] = Neisseria gonorrhoeae, ATCC49226, read-out: MIC (Table S1)
[16] = membrane preparation, 30 min drug then Bocillin FL, read-out: IC50 PBP1 (converted)
[17] = read-out: IC50 PBP1 (Table S1) (converted)
[18] = strain ATCC 19424, read-out: IC50 PBP2 (converted)
[19] = IC50 PBP1 (Table S1), strain ATCC 49226

| SMILES | IC50 (PBP1, PBP2 and PBP3 [1]) [µM] | IC50 (PBP1 [2]; [12]) [µM] | IC50 (PBP3 [3]) [µM] | MIC ([4]; read-out: MIC) [µg/mL] | MIC ([4]; read-out: MIC (Table S1)) [µg/mL] | IC50 (PBP2 [5]; [13]) [µM] | MIC increase for strain ATCC 49226 [6] [fold] | MIC [6, 14] [µg/mL] | MIC [6, 15] [µg/mL] | IC50 (PBP3 [7]) [µM] | IC50 (PBP1 [8]; [16]) [µM] | IC50 (PBP1, PBP2 and PBP3 [9]) [µM] | IC50 (PBP2 [10]; IC50 PBP2, strain ATCC 19424) [µM] | MIC [6] [µg/mL] | IC50 (PBP1 [8]; [17]) [µM] | IC50 (PBP2 [10]; [18]) [µM] | IC50 (PBP1, PBP2 and PBP3 [11]) [µM] | IC50 (PBP1 [2]; [19]) [µM] | IC50 (PBP2 [5]; IC50 PBP2 (Table S1), strain ATCC 49226) [µM] |
| --- | --- | --- | --- | --- | --- | --- | --- | --- | --- | --- | --- | --- | --- | --- | --- | --- | --- | --- | --- |
| CCO/N=C(\C(=O)N[C@@H]1C(=O)N2C(C(=O)[O-])=C(Sc3nc(-c4cc[n+](C)cc4)cs3)CS[C@H]12)c1nsc(N)n1 [CPT, ceftaroline] | 0.347 | > 3.31 | 3.14 | 0.032 (≈ 0.0529 µM) | 0.032 (≈ 0.0529 µM) | 0.347 | 16 | 0.5 (≈ 0.827 µM) | 0.5 (≈ 0.827 µM) | 2.13 | > 3.31 | 0.248 | 0.248 |  |  |  |  |  |  |
| Cn1c(N)c(NC(=O)NCCN)c[n+]1CC1=C(C(=O)O)N2C(=O)[C@@H](NC(=O)/C(=N\OC(C)(C)C(=O)[O-])c3nsc(N)n3)[C@H]2SC1 [TOL, ceftolozane] | 0.405 | > 3 | > 3 | 0.032 (≈ 0.048 µM) | 0.032 (≈ 0.048 µM) | 0.405 |  | 0.25 (≈ 0.375 µM) | 0.25 (≈ 0.375 µM) | > 3 | > 3 | 0.06 | 0.06 | 0.250 (≈ 0.375 µM) |  |  |  |  |  |
| CC1(C)S[C@@H]2[C@H](/N=C/N3CCCCCC3)C(=O)N2[C@H]1C(=O)O [MEC, amdinocillin] |  |  |  | 1 (≈ 3.07 µM) | 1 (≈ 3.07 µM) |  |  | 8 (≈ 24.6 µM) | 8 (≈ 24.6 µM) |  | 313 | 4.09 | 4.09 |  | 314 |  |  |  |  |
| CCN1CCN(C(=O)N[C@@H](C(=O)N[C@@H]2C(=O)N3[C@@H]2SC(C)(C)[C@@H]3C(=O)O)c2ccccc2)C(=O)C1=O [PIP, piperacillin] | 0.0193 | > 3.86 |  | 0.001 (≈ 0.00193 µM) | 0.001 (≈ 0.00193 µM) | 0.0193 | 125 |  | 0.125 (≈ 0.242 µM) |  | > 3.86 | 0.0386 |  |  |  | 0.0386 |  |  |  |
| CO/N=C(\C(=O)N[C@@H]1C(=O)N2C(C(=O)O)=C(CSc3nc(=O)c(=O)[nH]n3C)CS[C@H]12)c1csc(N)n1 [CRO, ceftriaxone] |  | 3.43 |  | 0.004 (≈ 0.00721 µM) | 0.004 (≈ 0.00721 µM) |  |  | 0.002 (≈ 0.00361 µM) | 0.008 (≈ 0.0144 µM) |  | 3.37 |  |  |  |  |  |  |  |  |
| CO/N=C(\C(=O)N[C@@H]1C(=O)N2C(C(=O)[O-])=C(C[N+]3(C)CCCC3)CS[C@H]12)c1csc(N)n1 [FEP, cefepime] |  | > 4.16 |  | 0.008 (≈ 0.0166 µM) | 0.008 (≈ 0.0166 µM) |  |  | 0.032 (≈ 0.0666 µM) | 0.032 (≈ 0.0666 µM) |  | > 4.16 |  |  |  |  |  |  |  |  |
| CO[C@@]1(NC(=O)Cc2cccs2)C(=O)N2C(C(=O)O)=C(COC(N)=O)CS[C@@H]21 [FOX, cefoxitin] |  | 2.13 |  | 0.25 (≈ 0.585 µM) | 0.25 (≈ 0.585 µM) | > 4.68 |  | 0.5 (≈ 1.17 µM) | 0.5 (≈ 1.17 µM) |  | 1.36 |  | 0.912 |  |  |  |  |  |  |
| CC1(C)S[C@@H]2[C@H](NC(=O)[C@H](C(=O)O)c3ccsc3)C(=O)N2[C@H]1C(=O)O [TIC, ticarcillin] |  | > 5.2 | 2.73 | 0.016 (≈ 0.0416 µM) | 0.016 (≈ 0.0416 µM) | > 5.2 |  | 0.5 (≈ 1.3 µM) | 0.5 (≈ 1.3 µM) | 1.64 | > 5.2 | 0.494 |  |  |  | 0.494 | 1.64 |  |  |
| CC1(C)S[C@@H]2[C@H](NC(=O)C(C(=O)O)c3ccccc3)C(=O)N2[C@H]1C(=O)O (stereo partly drawn) [CAR, carbenicillin] |  |  |  | 0.032 (≈ 0.0846 µM) | 0.032 (≈ 0.0846 µM) |  |  | 0.5 (≈ 1.32 µM) | 0.5 (≈ 1.32 µM) |  | > 5.29 | 0.344 | 0.344 |  |  |  |  | > 5.29 | > 5.29 |
| C[C@]1(Cn2ccnn2)[C@H](C(=O)O)N2C(=O)C[C@H]2S1(=O)=O [TZ, tazobactam] | 4.8 | 83.3 | 15.7 | 0.125 (≈ 0.416 µM) | 0.125 (≈ 0.416 µM) | 4.8 |  | 1 (≈ 3.33 µM) | 1 (≈ 3.33 µM) | 18.9 | 63.3 | 3.56 | 3.56 |  | 64 |  |  | 83.6 |  |
